In BindingDB's records for doi:10.7270/Q2CV4GM1 (D3R/Abbott, 2015) one finds IC50 data, which are given here for 57 compounds.

SMILES strings stand for the structures. Where “and” joins values, the source holds several entries; their conditions need not be identical. Identical values can stand only once.

The assay concerns the target T1, Tyrosine-protein kinase SYK [355-635] (Homo sapiens, UniProt P43405).
T1 construct: 355-635
Put plainly: SYK assay_HTRF.

A word on the IC50: it is the concentration at which inhibition is half-maximal. Turning to `CCN(c1nc(Nc2cccc(-c3cnco3)c2)ncc1Cl)c1cccc2[nH]ncc12` [GTC000317A], the IC50 is 9.93 nM and 24.8 nM and 41.3 nM.

Turning to `CCN(c1nc(Nc2cccc(C(N)=O)c2)ncc1F)c1cccc2[nH]ncc12` [GTC000318A], the IC50 was 13.4 nM and 35.2 nM.

`CCN(c1nc(Nc2ccc3c(c2)CCN3C(C)=O)ncc1F)c1cccc2[nH]ncc12` [GTC000319A] returned an IC50 of 18.2 nM.

As for `CCN(c1nc(Nc2cccc(-c3noc(C)n3)c2)ncc1F)c1cccc2[nH]ncc12` [GTC000320A], the IC50 came out at 21.4 nM.

On to `CCN(c1nc(Nc2ccc3[nH]c(=O)n(C)c3c2)ncc1F)c1cccc2[nH]ncc12` [GTC000321A], for which it took 21.2 nM to reach half-maximal inhibition (IC50).

`COCCN(c1ccnc(Nc2ccc3nn[nH]c3c2)n1)c1cccc2[nH]ncc12` [GTC000322A]: it took 20.5 nM to reach half-maximal inhibition (IC50).

Consider `COCCN(c1ccnc(Nc2cccc(-c3ocnc3C)c2)n1)c1cccc2[nH]ncc12` [GTC000323A], for which it took 21.5 nM to reach half-maximal inhibition (IC50).

Consider `COCCCN(c1ccnc(Nc2cccc(C(N)=O)c2)n1)c1cccc2[nH]ncc12` [GTC000324A], for which the IC50 was 12.8 nM and 61.9 nM.

Turning to `CCN(c1nc(Nc2ccc3ncsc3c2)ncc1F)c1cccc2[nH]ncc12` [GTC000325A], the IC50 was 10.1 nM and 55.7 nM and 29.3 nM.

As to `CCN(c1nc(Nc2ccc3c(c2)C(=O)NC3)ncc1F)c1cccc2[nH]ncc12` [GTC000326A], the IC50 was 13.5 nM and 17.3 nM and 66.7 nM.

As for `CCN(c1nc(Nc2ccc3c(c2)S(=O)(=O)NC3)ncc1Br)c1cccc2[nH]ncc12` [GTC000327A], the IC50 was 12.1 nM and 21.5 nM and 43.8 nM.

As for `CCN(c1nc(Nc2ccc3cn[nH]c3c2)ncc1Cl)c1cccc2[nH]ncc12` [GTC000328A], the IC50 was 15.2 nM and 29.6 nM and 50.5 nM and 12.2 nM.

On to `CCN(CC)CCCN(c1ccnc(Nc2cccc(S(N)(=O)=O)c2)n1)c1cccc2[nH]ncc12` [GTC000329A], for which the IC50 is 23.2 nM and 12.7 nM and 55.7 nM and 25.3 nM.

Regarding `CCN(c1nc(Nc2ccc3c(c2)S(=O)(=O)N(CC2CC2)C3)ncc1F)c1cccc2[nH]ncc12` [GTC000330A], the IC50 was 36.2 nM and 19.4 nM.

`CCN(c1nc(Nc2cccc(N3CCN(C)CC3)c2)ncc1F)c1cccc2[nH]ncc12` [GTC000331A] had an IC50 of 23.8 nM.

As for `CCN(CC)CCCN(c1ccnc(Nc2ccc3c(c2)C(=O)NS3(=O)=O)n1)c1cccc2[nH]ncc12` [GTC000332A], inhibition was half-maximal at 23.9 nM (IC50).

The compound `CCN(c1nc(Nc2ccc(CCO)cc2)ncc1F)c1cccc2[nH]ncc12` [GTC000333A] showed a half-inhibitory concentration (IC50) of 27.3 nM.

As to `CCN(c1nc(Nc2ccc3cnn(C)c3c2)ncc1Cl)c1cccc2[nH]ncc12` [GTC000334A], the midpoint of inhibition, the IC50, lay at 24 nM.

On to `COCCN(c1ccnc(Nc2cccc(S(N)(=O)=O)c2)n1)c1cccc2[nH]ncc12` [GTC000335A], for which the midpoint of inhibition, the IC50, lay at 22.4 nM.

For `COCCCN(c1nc(Nc2ccc3nn[nH]c3c2)ncc1F)c1cccc2[nH]ncc12` [GTC000336A], the IC50 was 25.6 nM.

In the case of `CN(c1nc(Nc2cccc(S(N)(=O)=O)c2)ncc1F)c1cccc2[nH]ncc12` [GTC000337A], inhibition was half-maximal at 22.8 nM (IC50).

With `CS(=O)(=O)c1cccc(Nc2nccc(N(CCCO)c3cccc4[nH]ncc34)n2)c1` [GTC000338A], the IC50 is 11.6 nM and 39.7 nM and 85.1 nM.

As to `CC(=O)N1CCC(CN(c2ccnc(Nc3ccc4[nH]c(=O)[nH]c4c3)n2)c2cccc3[nH]ncc23)CC1` [GTC000339A], the IC50 was 43.1 nM and 26.8 nM.

The compound `CCN(c1nc(Nc2cccc(-c3cccnc3)c2)ncc1F)c1cccc2[nH]ncc12` [GTC000340A] gave an IC50 of 29.3 nM.

In the case of `CCN(c1nc(Nc2cc(S(N)(=O)=O)ccc2OC)ncc1F)c1cccc2[nH]ncc12` [GTC000341A], the IC50 was found to be 30.5 nM.

`CCN(c1nc(Nc2cccc(S(=O)(=O)NC3CC3)c2)ncc1F)c1cccc2[nH]ncc12` [GTC000342A] registered an IC50 of 33.8 nM.

The compound `CCN(c1nc(Nc2ccc(C)c(S(=O)(=O)NCCO)c2)ncc1F)c1cccc2[nH]ncc12` [GTC000343A] showed an IC50 of 32.7 nM.

Consider `NC(=O)c1cccc(Nc2ncc(F)c(N(CCCO)c3cccc4[nH]ncc34)n2)c1` [GTC000344A], for which half-maximal inhibition (IC50) was put at 31.8 nM.

`COCCN(c1ccnc(Nc2ccc3c(cnn3C)c2)n1)c1cccc2[nH]ncc12` [GTC000345A]: the IC50 turned out to be 30.8 nM.

The compound `COCCCN(c1nc(Nc2cccc(C(N)=O)c2)ncc1F)c1cccc2[nH]ncc12` [GTC000346A] came in with an IC50 of 30.3 nM.

`COCCCN(c1nc(Nc2cccc(S(C)(=O)=O)c2)ncc1F)c1cccc2[nH]ncc12` [GTC000347A] gave an IC50 of 33.3 nM.

Consider `CCN(c1nc(Nc2ccc(N)c(OC(C)=O)c2)ncc1F)c1cccc2[nH]ncc12` [GTC000348A], for which the midpoint of inhibition, the IC50, lay at 30.5 nM.

The compound `CCN(c1nc(Nc2ccc(C)c(S(N)(=O)=O)c2)ncc1F)c1cccc2[nH]ncc12` [GTC000349A] returned an IC50 of 35.9 nM.

In turn, `CCCN(c1nc(Nc2ccc3c(c2)S(=O)(=O)CC3)ncc1F)c1cccc2[nH]ncc12` [GTC000350A] gave an IC50 of 40.6 nM.

In turn, `CN(c1nc(Nc2ccc(C(N)=O)cc2)ncc1F)c1cccc2[nH]ncc12` [GTC000351A] registered an IC50 of 36.6 nM.

Consider `COCCCN(c1ccnc(Nc2cccc(S(C)(=O)=O)c2)n1)c1cccc2[nH]ncc12` [GTC000352A], for which the IC50 is 23.1 nM and 99.3 nM.

In the case of `CCN(c1nc(Nc2ccc3c(c2)C(=O)N(C)C3)ncc1F)c1cccc2[nH]ncc12` [GTC000353A], the 50% inhibitory concentration (IC50) is 32.5 nM and 109 nM.

Compound `CCN(c1nc(Nc2ccc3c(c2)CCN3C(=O)C(F)(F)F)ncc1F)c1cccc2[nH]ncc12` [GTC000354A] gave an IC50 of 59 nM.

`CCN(c1nc(Nc2cccc(S(N)(=O)=O)c2)ncc1Cl)c1cccc2[nH]ncc12` [GTC000355A] showed an IC50 of 56.9 nM.

As to `NS(=O)(=O)c1cccc(Nc2nccc(N(CCCCO)c3cccc4[nH]ncc34)n2)c1` [GTC000356A], the IC50 was 59.3 nM.

The compound `CCN(c1nc(Nc2ccc3c(c2)NC(=O)CO3)ncc1F)c1cccc2[nH]ncc12` [GTC000357A] came in with an IC50 of 67.9 nM.

`CNC(=O)CN(c1nc(Nc2ccc3c(c2)S(=O)(=O)NC3)ncc1F)c1cccc2[nH]ncc12` [GTC000358A] showed an IC50 of 81.8 nM.

The compound `CN(c1nc(Nc2cccc(S(C)(=O)=O)c2)ncc1F)c1cccc2[nH]ncc12` [GTC000359A] displayed an IC50 of 87.3 nM.

On to `CS(=O)(=O)c1cccc(Nc2ncc(F)c(N(CCCO)c3cccc4[nH]ncc34)n2)c1` [GTC000360A], for which the concentration for half-maximal inhibition (IC50) stood at 79.4 nM.

In the case of `CCN(c1nc(Nc2ccc3[nH]c(=O)oc3c2)ncc1F)c1cccc2[nH]ncc12` [GTC000361A], half-maximal inhibition (IC50) required 72.3 nM.

As to `CCN(c1nc(Nc2ccc(-c3cnco3)c(OC)c2)ncc1F)c1cccc2[nH]ncc12` [GTC000362A], the IC50 came out at 87.3 nM.

Compound `CCN(c1nc(Nc2ccc(N3CCN(C)CC3)cc2)ncc1F)c1cccc2[nH]ncc12` [GTC000363A] came in with a half-inhibitory concentration (IC50) of 105 nM.

As to `CCN(c1nc(Nc2cc(S(N)(=O)=O)ccc2C)ncc1F)c1cccc2[nH]ncc12` [GTC000364A], the IC50 is 102 nM.

`NS(=O)(=O)c1cccc(Nc2nccc(N(CC(F)(F)F)c3cccc4[nH]ncc34)n2)c1` [GTC000365A] registered an IC50 of 98.2 nM.

In the case of `CN(c1nc(Nc2cccc(C(N)=O)c2)ncc1F)c1cccc2[nH]ncc12` [GTC000366A], the 50% inhibitory concentration (IC50) was 110 nM.

On to `CNC(=O)CN(c1nc(Nc2ccc3c(c2)S(=O)(=O)CC3)ncc1F)c1cccc2[nH]ncc12` [GTC000367A], for which the IC50 is 81.5 nM and 174 nM and 157 nM and 171 nM.

Consider `CCN(CC)CCCN(c1ccnc(Nc2ccc3c(c2)CNS3(=O)=O)n1)c1cccc2[nH]ncc12` [GTC000368A], for which the IC50 was 229 nM and 88.3 nM.

Take `NC(=O)CN(c1nc(Nc2ccc3c(c2)S(=O)(=O)CC3)ncc1F)c1cccc2[nH]ncc12` [GTC000369A]: it took 198 nM to reach half-maximal inhibition (IC50).

In turn, `CCN(c1nc(Nc2ccc3c(C)n(CCCO)nc3c2)ncc1F)c1cccc2[nH]ncc12` [GTC000370A] registered an IC50 of 188 nM.

As for `NCCN(c1nc(Nc2ccc3c(c2)S(=O)(=O)CC3)ncc1F)c1cccc2[nH]ncc12` [GTC000371A], the IC50 stood at 225 nM.

Compound `CCN(c1nc(Nc2ccc(C(=O)N3CCN(C)CC3)cc2)ncc1F)c1cccc2[nH]ncc12` [GTC000372A] had an IC50 of 244 nM.

The compound `CCN(c1nc(Nc2cc(S(=O)(=O)NCC3CCCO3)ccc2OC)ncc1F)c1cccc2[nH]ncc12` (configuration not stated) [GTC000373A] registered an IC50 of 624 nM.
